Reference: patent US20150175655A1 (priority 2012, published 2015)
Like-named read-outs stand apart in the source and are kept apart here.

Target: T1, NS3 genotype 3a protease (UniProt Q81258)
T1 construct: Purified NS3 protease domain (amino acids 1-181) of the genotype 1b and 3a virus were generated as above; fused on or other part: N-terminal hexahistidine tag and rTEV protease cleavage site (vector p28-N6H-Tev-NS3(181)3)
T1 sequence (Q81258 1033-1663): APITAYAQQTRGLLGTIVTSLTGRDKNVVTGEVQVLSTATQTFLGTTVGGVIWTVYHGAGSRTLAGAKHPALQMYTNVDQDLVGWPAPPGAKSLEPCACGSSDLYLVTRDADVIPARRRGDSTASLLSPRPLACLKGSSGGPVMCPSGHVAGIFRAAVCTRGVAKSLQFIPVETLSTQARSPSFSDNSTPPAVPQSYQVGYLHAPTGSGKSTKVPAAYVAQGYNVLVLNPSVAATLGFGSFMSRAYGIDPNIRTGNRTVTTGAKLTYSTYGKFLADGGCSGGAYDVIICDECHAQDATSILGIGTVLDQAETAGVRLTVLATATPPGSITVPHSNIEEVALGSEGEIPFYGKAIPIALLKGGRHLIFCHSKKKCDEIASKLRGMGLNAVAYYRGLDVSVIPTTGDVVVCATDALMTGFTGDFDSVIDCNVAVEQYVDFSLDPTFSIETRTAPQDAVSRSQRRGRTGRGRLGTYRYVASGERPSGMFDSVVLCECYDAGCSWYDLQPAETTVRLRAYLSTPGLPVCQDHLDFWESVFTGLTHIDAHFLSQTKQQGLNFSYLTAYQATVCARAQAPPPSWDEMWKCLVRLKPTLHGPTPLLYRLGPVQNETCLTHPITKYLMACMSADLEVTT
Test: Ki determination, NS3 protease genotype 3a (fluorogenic depsipeptide substrate)
Assay type: biochemical, hepatitis C virus
How it was run: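 Refolded His-tagged NS3 protease domain (aa 1-181, genotype 3a) at 200 pM with 20 μM NS4A peptide was pre-incubated 1 h at RT with inhibitor (100 nM–5 pM, 3-fold), then 2 μM FRET depsipeptide substrate was added in HEPES/40% glycerol/10% DMSO buffer. Steady-state rates over 90-120 min (ex 340/em 490 nm) versus inhibitor concentration gave Ki.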

[1] = 200 pM enzyme, 20 μM NS4A peptide, 2 μM substrate, read-out: Ki 3A

Row | Compound | Ki [1] [nM] | Ki (read-out: Ki 3A, 200 pM enzyme, 20 μM NS4A peptide, 2 μM substrate) [nM]
1 | CC[C@@H]1[C@@H]2CN(C(=O)[C@H](C(C)(C)C)NC(=O)O[C@@H]3C[C@H]3CCCCC(F)(F)c3nc4ccc(OC)cc4nc3O2)[C@@H]1C(=O)N[C@]1(C(=O)NS(=O)(=O)C2(C)CC2)C[C@H]1CC(F)F [Example 35, (1aR,5S,8S,9S,10R,22aR)-5-tert-butyl-N-[(1R,2S)-2-(2,2-difluoroethyl)-1-{[(1-methylcyclopropyl)sulfonyl]carbamoyl}cyclopropyl]-9-ethyl-18,18-difluoro-14-methoxy-3,6-dioxo-1,1a,3,4,5,6,9,10,18,19,20,21,22,22a-tetradecahydro-8H-7,10-methanocyclopropa[18,19][1,10,3,6]dioxadiazacyclononadecino[11,12-b]quinoxaline-8-carboxamide] | 0.23 | 
2 | CC[C@@H]1[C@@H]2CN(C(=O)[C@H](C(C)(C)C)NC(=O)O[C@@]3(C)C[C@@H]3CCCCCc3nc4ccc(OC)cc4nc3O2)[C@@H]1C(=O)N[C@]1(C(=O)NS(=O)(=O)C2(C)CC2)C[C@H]1C(F)F [Example 8, (1aS,5S,8S,9S,10R,22aS)-5-tert-butyl-N-[(1R,2R)-2-(difluoromethyl)-1-{[(1-methylcyclopropyl)sulfonyl]carbamoyl}cyclopropyl]-9-ethyl-14-methoxy-1a-methyl-3,6-dioxo-1,1a,3,4,5,6,9,10,18,19,20,21,22,22a-tetradecahydro-8H-7,10-methanocyclopropa[18,19][1,10,3,6]dioxadiazacyclononadecino[11,12-b]quinoxaline-8-carboxamide] | 0.42 | 
3 | COc1ccc2nc3c(nc2c1)O[C@H]1CN(C(=O)[C@H](C(C)(C)C)NC(=O)O[C@@H]2CCC[C@H]2CCCCC3)[C@H](C(=O)N[C@]2(C(=O)NS(=O)(=O)C3CC3)C[C@H]2C(F)F)[C@@H]1C [Example 28, (3aR,7S,10S,11S,12R,24aR)-7-tert-butyl-N-[(1R,2R)-1-[(cyclopropylsulfonyl)carbamoyl]-2-(difluoromethyl)cyclopropyl]-16-methoxy-11-methyl-5,8-dioxo-1,2,3,3a,5,6,7,8,11,12,20,21,22,23,24,24a-hexadecahydro-10H-9,12-methanocyclopenta[18,19][1,10,3,6]dioxadiazacyclononadecino[11,12-b]quinoxaline-10-carboxamide] | 0.08 | 
4 | COc1ccc2nc3c(nc2c1)O[C@H]1CN(C(=O)[C@H](C(C)(C)C)NC(=O)O[C@@H]2C[C@@H]4C[C@@H]4[C@H]2CCCCC3)[C@H](C(=O)N[C@]2(C(=O)NS(=O)(=O)C3CC3)C[C@H]2CC(F)F)[C@@H]1C [Example 57, (1aS,2aR,6S,9S,10S,11R,23aR,23bS)-6-tert-butyl-N-[(1R,2S)-1-[(cyclopropylsulfonyl)carbamoyl]-2-(2,2-difluoroethyl)cyclopropyl]-15-methoxy-10-methyl-4,7-dioxo-1a,2,2a,4,5,6,7,10,11,19,20,21,22,23,23a,23b-hexadecahydro-1H,9H-8,11-methanocyclopropa[4′,5′]cyclopenta[1′,2′:18,19][1,10,3,6]dioxadiazacyclononade cino[11,12-b]quinoxaline-9-carboxamide] |  | 0.28
5 | C[C@@H]1[C@@H]2CN(C(=O)[C@H](C(C)(C)C)NC(=O)O[C@@H]3C[C@@H]4C[C@@H]4[C@H]3CCCCC(F)(F)c3nc4ccccc4nc3O2)[C@@H]1C(=O)N[C@]1(C(=O)NS(=O)(=O)C2(C)CC2)C[C@H]1C(F)F [Example 82, (1aS,2aR,6S,9S,10S,11R,23aR,23bS)-6-tert-butyl-N-[(1R,2R)-2-(difluoromethyl)-1-{[(1-methylcyclopropyl)sulfonyl]carbamoyl}cyclopropyl]-19,19-difluoro-10-methyl-4,7-dioxo-1a,2,2a,4,5,6,7,10,11,19,20,21,22,23,23a,23b-hexadecahydro-1H,9H-8,11-methanocyclopropa[4′,5′]cyclopenta[1′,2′:18,19][1,10,3,6]dioxadiazacyclononade cino[11,12-b]quinoxaline-9-carboxamide] | 0.04 | 
